Test results from ChEMBL document CHEMBL4130357, “Developing potential agents against atherosclerosis: Design, synthesis and pharmacological evaluation of novel dual inhibitors of oxidative stress and Squalene Synthase activity” (Eur J Med Chem, 2017).
Calls of active or inactive are those of the source. No cut-off for these calls is given here.

Columns and labels:
Squalene synthase = target: T1, Squalene synthase (Rattus norvegicus, UniProt Q02769); experiment: Inhibition of SQS in rat microsomes using [3H]-FPP as substrate preincubated for 10 mins followed by substrate addition measured after 30 mins by scintillation counting
T1 sequence (Q02769 whole entry): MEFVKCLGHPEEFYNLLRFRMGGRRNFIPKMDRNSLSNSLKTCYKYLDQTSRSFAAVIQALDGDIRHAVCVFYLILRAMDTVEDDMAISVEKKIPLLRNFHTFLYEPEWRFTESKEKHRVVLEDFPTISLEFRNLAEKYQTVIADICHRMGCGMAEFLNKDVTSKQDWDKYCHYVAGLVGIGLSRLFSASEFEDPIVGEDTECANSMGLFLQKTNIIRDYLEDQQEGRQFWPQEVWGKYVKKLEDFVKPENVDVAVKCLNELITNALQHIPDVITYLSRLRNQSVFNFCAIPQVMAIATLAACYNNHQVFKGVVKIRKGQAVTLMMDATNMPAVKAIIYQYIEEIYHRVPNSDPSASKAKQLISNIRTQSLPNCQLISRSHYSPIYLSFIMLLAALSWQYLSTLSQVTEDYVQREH

Liver = experiment: Antioxidant activity in heat-inactivated Fischer-344 rat hepatic microsomes assessed as protection against Fe2+/ascorbate-induced lipid peroxidation after 45 mins by TBAR-based spectrophotometry; type: functional, microsome; conditions: Fischer-344, Liver, 0.75 h
[1] = Antioxidant activity assessed as DPPH radical scavenging activity measured at 30 to 60 mins by UV-Visible spectrophotometric method; type: functional
[2] = target: T2, Prostaglandin G/H synthase 1 (Ovis aries) (UniProt P05979); experiment: Inhibition of ovine COX1 at 50 uM using arachidonic acid as substrate by ELISA
T2 sequence (whole entry): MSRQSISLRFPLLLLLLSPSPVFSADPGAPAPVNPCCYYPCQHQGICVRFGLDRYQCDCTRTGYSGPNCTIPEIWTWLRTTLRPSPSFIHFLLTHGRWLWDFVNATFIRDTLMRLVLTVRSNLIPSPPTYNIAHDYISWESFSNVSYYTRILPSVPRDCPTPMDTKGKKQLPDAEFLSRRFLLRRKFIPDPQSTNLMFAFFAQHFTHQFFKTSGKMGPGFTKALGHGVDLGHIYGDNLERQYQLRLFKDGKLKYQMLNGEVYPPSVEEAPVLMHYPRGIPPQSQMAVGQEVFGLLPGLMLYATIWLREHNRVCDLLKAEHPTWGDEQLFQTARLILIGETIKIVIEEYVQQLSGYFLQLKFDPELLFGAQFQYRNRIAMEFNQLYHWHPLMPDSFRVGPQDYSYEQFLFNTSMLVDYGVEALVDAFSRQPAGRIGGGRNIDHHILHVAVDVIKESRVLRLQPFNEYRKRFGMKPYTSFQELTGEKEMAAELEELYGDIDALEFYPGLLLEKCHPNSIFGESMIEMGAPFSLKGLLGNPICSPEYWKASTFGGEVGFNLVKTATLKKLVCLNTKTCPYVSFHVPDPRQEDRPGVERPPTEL

[3] = target: T3, Prostaglandin G/H synthase 2 (Homo sapiens) (UniProt P35354); experiment: Inhibition of recombinant human COX2 at 50 uM using arachidonic acid as substrate by ELISA
T3 sequence (whole entry): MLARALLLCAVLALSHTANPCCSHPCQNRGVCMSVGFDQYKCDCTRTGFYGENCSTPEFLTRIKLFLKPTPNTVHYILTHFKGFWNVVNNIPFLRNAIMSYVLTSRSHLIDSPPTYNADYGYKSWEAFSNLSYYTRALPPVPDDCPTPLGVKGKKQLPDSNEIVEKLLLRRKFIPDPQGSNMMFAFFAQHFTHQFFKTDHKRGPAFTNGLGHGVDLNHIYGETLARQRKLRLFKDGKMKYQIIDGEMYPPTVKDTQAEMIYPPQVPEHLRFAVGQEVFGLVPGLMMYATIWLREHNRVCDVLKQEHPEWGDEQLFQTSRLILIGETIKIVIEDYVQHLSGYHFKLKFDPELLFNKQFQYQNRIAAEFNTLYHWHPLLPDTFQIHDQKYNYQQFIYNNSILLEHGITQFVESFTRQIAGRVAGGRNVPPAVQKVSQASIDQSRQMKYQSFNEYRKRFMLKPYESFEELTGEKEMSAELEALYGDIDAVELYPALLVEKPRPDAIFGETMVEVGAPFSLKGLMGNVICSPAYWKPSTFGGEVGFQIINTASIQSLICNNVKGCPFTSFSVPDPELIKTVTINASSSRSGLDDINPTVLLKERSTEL

Mus musculus [4] = experiment: Antihypercholesterolemic activity in HDF/STZ-induced obesity-diabetes type 2 SKH-2 mouse model assessed as increase in plasma HDL levels at 56 umol/kg, ip administered twice daily measured on day 22 and day 53 relative to untreated control; type: functional, organism-based
Mus musculus [5] = experiment: Anti-diabetic activity in HDF/STZ-induced obesity-diabetes type 2 SKH-2 mouse model assessed as reversal of body weight gain at 56 umol/kg, ip administered twice daily until 53 days measured once per week from 28th to 53 day post STZ challenge; type: functional, organism-based
Mus musculus [6] = experiment: Antihyperlipidemic activity in HDF/STZ-induced obesity-diabetes type 2 SKH-2 mouse model assessed as increase in plasma HDL/LDL ratio at 56 umol/kg, ip administered twice daily measured on day 22 and day 53 relative to untreated control; type: functional
Mus musculus [7] = experiment: Antihypercholesterolemic activity in HDF/STZ-induced obesity-diabetes type 2 SKH-2 mouse model assessed as decrease in plasma total cholestrol levels at 56 umol/kg, ip administered twice daily measured on day 22 and day 53 relative to untreated control; type: functional; parameters: scale not given: the % may be the effect or the level left
Mus musculus [8] = experiment: Antihyperlipidemic activity in HDF/STZ-induced obesity-diabetes type 2 SKH-2 mouse model assessed as decrease in plasma LDL levels at 56 umol/kg, ip administered twice daily measured on day 22 and day 53 relative to untreated control; type: functional; parameters: scale not given: the % may be the effect or the level left
Mus musculus [9] = experiment: Anti-diabetic activity in HDF/STZ-induced obesity-diabetes type 2 SKH-2 mouse model assessed as reversal of body weight gain at 56 umol/kg, ip administered twice daily until 23 days measured once per week; type: functional, organism-based
Mus musculus [10] = experiment: Antihyperlipidemic activity in HDF/STZ-induced obesity-diabetes type 2 SKH-2 mouse model assessed as decrease in plasma triglyceride levels at 56 umol/kg, ip administered twice daily measured on day 22 and day 53 relative to untreated control; type: functional
[11] = target: T2, Prostaglandin G/H synthase 1 (Ovis aries); experiment: Inhibition of ovine COX1 at 20 uM using arachidonic acid as substrate by ELISA
Mus musculus [12] = experiment: Anti-diabetic activity in HDF/STZ-induced obesity-diabetes type 2 SKH-2 mouse model assessed as reversal of glucose increase at 56 umol/kg, ip administered twice daily until 53 days measured every 5 to 10 days from day 27 to 53; type: functional, organism-based

| IC50 (Squalene synthase) | IC50 (Liver) | IC50 [1] | Compound | further results |
| --- | --- | --- | --- | --- |
| 7 µM | 110 µM | > 400 µM | CN1CCOC(O)(c2ccc(/C=C/c3ccccc3)cc2)C1 (centres undefined) |  |
|  | 45 µM | > 400 µM | CN1CC(O)(c2ccc(/C=C/c3ccccc3)cc2)OC2CCCCC21 (centres undefined) | inhibition [2]: inactive; inhibition [3]: inactive |
|  | 5.9 µM | > 400 µM | CN1CC(O)(c2ccc(-c3cc(C(C)(C)C)c(O)c(C(C)(C)C)c3)cc2)OC2CCCCC21 (centres undefined) | Activity (Mus musculus [4]): inactive; Activity (Mus musculus [5]): Active; fold change (FC) (Mus musculus [6]): 7.5; Activity (Mus musculus [7]): 70%; Activity (Mus musculus [8]): 95%; Activity (Mus musculus [9]): Active; Activity (Mus musculus [10]): inactive |
| > 50 µM | > 1000 µM | > 400 µM | CSc1ccccc1N(C)CC(=O)c1ccc(-c2ccccc2)cc1 |  |
| 35 µM | 350 µM | > 400 µM | OC1(c2ccc(-c3ccccc3)cc2)CN2CCCCC2CO1 (centres undefined) |  |
| 28 µM | 8.2 µM | 183 µM | CN1CC(O)(c2ccccc2)Sc2ccccc21 (centres undefined) |  |
| > 50 µM | 4.9 µM | > 400 µM | CN1CC(O)(c2ccc(-c3ccccc3)cc2)Oc2ccc(-c3ccccc3)cc21 (centres undefined) |  |
| 50 µM | 7.6 µM | 152 µM | CN1CC(O)(c2ccccc2)Oc2ccccc21 (centres undefined) |  |
| 16.5 µM | 83 µM | 271 µM | CN1CC(O)(c2ccc(-c3ccccc3)cc2)SC2CCCCC21 (centres undefined) | inhibition [11]: 89% |
|  | > 1000 µM | 234 µM | CC(C)(Sc1cc(C(C)(C)C)c(O)c(C(C)(C)C)c1)Sc1cc(C(C)(C)C)c(O)c(C(C)(C)C)c1 [PROBUCOL] |  |
| 8.5 µM | 15 µM | 44 µM | CN1CC(O)(c2ccc(-c3ccc(O)cc3)cc2)Sc2ccccc21 (centres undefined) |  |
|  | 42 µM | > 400 µM | OC1(c2ccc(/C=C/c3ccccc3)cc2)CN2CCCCC2CO1 (centres undefined) | inhibition [2]: inactive; inhibition [3]: inactive |
| > 50 µM | 6.5 µM | 34 µM | CN1CC(O)(c2ccc(-c3cc(C(C)(C)C)c(O)c(C(C)(C)C)c3)cc2)Sc2ccccc21 (centres undefined) | Activity (Mus musculus [12]): inactive; inhibition [2]: inactive; Activity (Mus musculus [4]): inactive; inhibition [3]: inactive; fold change (FC) (Mus musculus [6]): 3; Activity (Mus musculus [7]): 31%; Activity (Mus musculus [8]): 65%; Activity (Mus musculus [9]): inactive; Activity (Mus musculus [10]): 55% |
| 14 µM | 14 µM | 171 µM | CN1CC(O)(c2ccc(-c3ccc(C(F)(F)F)cc3)cc2)Sc2ccccc21 (centres undefined) |  |
| 33 µM | 300 µM | > 400 µM | CN1CCOC(O)(c2ccc(-c3ccccc3)cc2)C1 (centres undefined) | inhibition [2]: 38%; inhibition [3]: 100% |
| > 50 µM | 15 µM | 96 µM | Oc1ccc(/C=C/c2cc(O)cc(O)c2)cc1 [RESVERATROL] |  |
|  | 450 µM | > 400 µM | CN1CC(O)(c2ccc(-c3ccccc3)cc2)OC2CCCCC21 (centres undefined) |  |
